# Organism: Rattus norvegicus
# Test: Open TG-GATES - Regimen: Daily Repeat
# Assay type: toxicity, organism-based, Sprague-Dawley
# Parameters: regimen Daily Repeat, gender Male, age 6 weeks
# Settings: in vivo, po, 100 mg/kg, route gavage, dose level Low; for APTT / Bas / Eos / Fbg / Hb / Ht / Lym / MCH / MCHC / MCV / Mono / Neu / PT / Plat / RBC / Ret / WBC: tissue Blood; for KIDNEY_L / KIDNEY_R / KIDNEY_TOTAL: tissue Kidney; for LIVER: tissue Liver; for A/G / ALP / ALT / AST / BUN / CRE / Ca / Cl / DBIL / GLC / IP / K / LDH / Na / PL / RALB / TBIL / TC / TG / TP / gamma-GTP: tissue Plasma
smiles,measurement,setting,value
Cc1nnc2n1-c1ccc(Cl)cc1C(c1ccccc1Cl)=NC2 [TRIAZOLAM],TERMINAL_BW,"72 h, time 3 day",218.3 g
same,APTT,"72 h, time 3 day",21.4 s
same,Bas,"72 h, time 3 day",0%
same,Eos,"72 h, time 3 day",1.2%
same,Fbg,"72 h, time 3 day",274.2 mg/dL
same,Hb,"72 h, time 3 day",13.8 g/dL
same,Ht,"72 h, time 3 day",41.1%
same,Lym,"72 h, time 3 day",74.2%
same,MCH,"72 h, time 3 day",21.5 pg
same,MCHC,"72 h, time 3 day",33.7%
same,MCV,"72 h, time 3 day",63.9 fL
same,Mono,"72 h, time 3 day",3.8%
same,Neu,"72 h, time 3 day",20%
same,PT,"72 h, time 3 day",13.2 s
same,Plat,"72 h, time 3 day",117.9 x10_4/uL
same,RBC,"72 h, time 3 day",643 x10_4/ul
same,Ret,"72 h, time 3 day",6.6%
same,WBC,"72 h, time 3 day",108.6 x10_2/uL
same,KIDNEY_L,"72 h, time 3 day",1 g
same,KIDNEY_R,"72 h, time 3 day",1 g
same,KIDNEY_TOTAL,"72 h, time 3 day",1.9 g
same,LIVER,"72 h, time 3 day",10.3 g
same,A/G,"72 h, time 3 day",0.9
same,ALP,"72 h, time 3 day",1550.6 IU/L
same,ALT,"72 h, time 3 day",53.8 IU/L
same,AST,"72 h, time 3 day",79 IU/L
same,BUN,"72 h, time 3 day",14.2 mg/dL
same,CRE,"72 h, time 3 day",0.2 mg/dL
same,Ca,"72 h, time 3 day",11.1 mg/dL
same,Cl,"72 h, time 3 day",104.6 meq/L
same,DBIL,"72 h, time 3 day",0.012 mg/dL
same,GLC,"72 h, time 3 day",166.2 mg/dL
same,IP,"72 h, time 3 day",8.1 mg/dL
same,K,"72 h, time 3 day",4 meq/L
same,LDH,"72 h, time 3 day",88.2 IU/L
same,Na,"72 h, time 3 day",141 meq/L
same,PL,"72 h, time 3 day",142.4 mg/dL
same,RALB,"72 h, time 3 day",2.6 g/dL
same,TBIL,"72 h, time 3 day",0.054 mg/dL
same,TC,"72 h, time 3 day",75.4 mg/dL
same,TG,"72 h, time 3 day",76 mg/dL
same,TP,"72 h, time 3 day",5.5 g/dL
same,gamma-GTP,"72 h, time 3 day",1 IU/L
same,TERMINAL_BW,"[…], time 7 day",251.1 g
same,TERMINAL_BW,"[…], time 14 day",311.7 g
same,TERMINAL_BW,"[…], time 28 day",393.2 g
same,APTT,"[…], time 7 day",20.5 s
same,Bas,"[…], time 7 day",0%
same,Eos,"[…], time 7 day",0.8%
same,Fbg,"[…], time 7 day",251.8 mg/dL
same,Hb,"[…], time 7 day",13.9 g/dL
same,Ht,"[…], time 7 day",41.6%
same,Lym,"[…], time 7 day",74.8%
same,MCH,"[…], time 7 day",20.9 pg
same,MCHC,"[…], time 7 day",33.5%
same,MCV,"[…], time 7 day",62.4 fL
same,Mono,"[…], time 7 day",2.2%
same,Neu,"[…], time 7 day",21.4%
same,PT,"[…], time 7 day",13 s
same,Plat,"[…], time 7 day",116.7 x10_4/uL
same,RBC,"[…], time 7 day",667 x10_4/ul
same,Ret,"[…], time 7 day",6.1%
same,WBC,"[…], time 7 day",109.2 x10_2/uL
same,APTT,"[…], time 14 day",17.9 s
same,Bas,"[…], time 14 day",0.8%
same,Eos,"[…], time 14 day",1%
same,Fbg,"[…], time 14 day",253.2 mg/dL
same,Hb,"[…], time 14 day",14.4 g/dL
same,Ht,"[…], time 14 day",43.7%
same,Lym,"[…], time 14 day",77.2%
same,MCH,"[…], time 14 day",20.2 pg
same,MCHC,"[…], time 14 day",32.9%
same,MCV,"[…], time 14 day",61.6 fL
same,Mono,"[…], time 14 day",2.4%
same,Neu,"[…], time 14 day",18.4%
same,PT,"[…], time 14 day",13.4 s
same,Plat,"[…], time 14 day",117.2 x10_4/uL
same,RBC,"[…], time 14 day",710.8 x10_4/ul
same,Ret,"[…], time 14 day",4.8%
same,WBC,"[…], time 14 day",98 x10_2/uL
same,APTT,"[…], time 28 day",17.1 s
same,Bas,"[…], time 28 day",0.2%
same,Eos,"[…], time 28 day",1.2%
same,Fbg,"[…], time 28 day",277.4 mg/dL
same,Hb,"[…], time 28 day",15.2 g/dL
same,Ht,"[…], time 28 day",45.2%
same,Lym,"[…], time 28 day",78.4%
same,MCH,"[…], time 28 day",19 pg
same,MCHC,"[…], time 28 day",33.6%
same,MCV,"[…], time 28 day",56.6 fL
same,Mono,"[…], time 28 day",1.6%
same,Neu,"[…], time 28 day",17.6%
same,PT,"[…], time 28 day",13.2 s
same,Plat,"[…], time 28 day",110.7 x10_4/uL
same,RBC,"[…], time 28 day",798 x10_4/ul
same,Ret,"[…], time 28 day",2.4%
same,WBC,"[…], time 28 day",93.4 x10_2/uL
same,KIDNEY_L,"[…], time 7 day",1.1 g
same,KIDNEY_R,"[…], time 7 day",1 g
same,KIDNEY_TOTAL,"[…], time 7 day",2.1 g
same,KIDNEY_L,"[…], time 14 day",1.2 g
same,KIDNEY_R,"[…], time 14 day",1.2 g
same,KIDNEY_TOTAL,"[…], time 14 day",2.4 g
same,KIDNEY_L,"[…], time 28 day",1.4 g
same,KIDNEY_R,"[…], time 28 day",1.4 g
same,KIDNEY_TOTAL,"[…], time 28 day",2.8 g
same,LIVER,"[…], time 7 day",11.9 g
same,LIVER,"[…], time 14 day",13.6 g
same,LIVER,"[…], time 28 day",15.5 g
same,A/G,"[…], time 7 day",0.9
same,ALP,"[…], time 7 day",1700.8 IU/L
same,ALT,"[…], time 7 day",48.8 IU/L
same,AST,"[…], time 7 day",75.6 IU/L
same,BUN,"[…], time 7 day",16.6 mg/dL
same,CRE,"[…], time 7 day",0.2 mg/dL
same,Ca,"[…], time 7 day",10.9 mg/dL
same,Cl,"[…], time 7 day",105.2 meq/L
same,DBIL,"[…], time 7 day",0.012 mg/dL
same,GLC,"[…], time 7 day",192.4 mg/dL
same,IP,"[…], time 7 day",6.9 mg/dL
same,K,"[…], time 7 day",4.2 meq/L
same,LDH,"[…], time 7 day",77.4 IU/L
same,Na,"[…], time 7 day",141.4 meq/L
same,PL,"[…], time 7 day",157.4 mg/dL
same,RALB,"[…], time 7 day",2.6 g/dL
same,TBIL,"[…], time 7 day",0.036 mg/dL
same,TC,"[…], time 7 day",78.6 mg/dL
same,TG,"[…], time 7 day",104.8 mg/dL
same,TP,"[…], time 7 day",5.5 g/dL
same,gamma-GTP,"[…], time 7 day",1.4 IU/L
same,A/G,"[…], time 14 day",0.8
same,ALP,"[…], time 14 day",1617 IU/L
same,ALT,"[…], time 14 day",40.2 IU/L
same,AST,"[…], time 14 day",72.2 IU/L
same,BUN,"[…], time 14 day",16.2 mg/dL
same,CRE,"[…], time 14 day",0.2 mg/dL
same,Ca,"[…], time 14 day",10.8 mg/dL
same,Cl,"[…], time 14 day",104.8 meq/L
same,DBIL,"[…], time 14 day",0.008 mg/dL
same,GLC,"[…], time 14 day",189.6 mg/dL
same,IP,"[…], time 14 day",7.5 mg/dL
same,K,"[…], time 14 day",3.8 meq/L
same,LDH,"[…], time 14 day",83.4 IU/L
same,Na,"[…], time 14 day",142.6 meq/L
same,PL,"[…], time 14 day",151.8 mg/dL
same,RALB,"[…], time 14 day",2.7 g/dL
same,TBIL,"[…], time 14 day",0.04 mg/dL
same,TC,"[…], time 14 day",75 mg/dL
same,TG,"[…], time 14 day",118.2 mg/dL
same,TP,"[…], time 14 day",5.8 g/dL
same,gamma-GTP,"[…], time 14 day",1 IU/L
same,A/G,"[…], time 28 day",0.8
same,ALP,"[…], time 28 day",1207.4 IU/L
same,ALT,"[…], time 28 day",42 IU/L
same,AST,"[…], time 28 day",64.8 IU/L
same,BUN,"[…], time 28 day",15.2 mg/dL
same,CRE,"[…], time 28 day",0.2 mg/dL
same,Ca,"[…], time 28 day",10.7 mg/dL
same,Cl,"[…], time 28 day",105 meq/L
same,DBIL,"[…], time 28 day",0.01 mg/dL
same,GLC,"[…], time 28 day",178.8 mg/dL
same,IP,"[…], time 28 day",6.4 mg/dL
same,K,"[…], time 28 day",4.1 meq/L
same,LDH,"[…], time 28 day",67.2 IU/L
same,Na,"[…], time 28 day",143.6 meq/L
same,PL,"[…], time 28 day",142.6 mg/dL
same,RALB,"[…], time 28 day",2.7 g/dL
same,TBIL,"[…], time 28 day",0.054 mg/dL
same,TC,"[…], time 28 day",68.4 mg/dL
same,TG,"[…], time 28 day",125.4 mg/dL
same,TP,"[…], time 28 day",6.2 g/dL
same,gamma-GTP,"[…], time 28 day",0.8 IU/L

# From ChEMBL document CHEMBL3885861, “Open TG-GATES”
